Laboratory results taken from patent publication US20140141456A1, “PAPP-A2 AS A MARKER FOR MONITORING, PREDICTING AND DIAGNOSING PREECLAMPSIA” (Ansh Labs, LLC, priority 2012, published 2014).

How the values were obtained:
PAPP-A2 = PAPP-A2 (Homo sapiens, UniProt Q9BXP8)
Procedure: Medium from 293T cells transfected with empty vector (lane 1), cDNA encoding PAPP-A2 with an inactivating E734Q mutation (pPA2-KO) (lane 2), or cDNA encoding wild-type PAPP-A2 (pPA2) (lanes 3-6) was incubated with C-terminally c-myc tagged rIGFBP-5. Proteolytic activity was assessed by Western blotting using anti-c-myc. ‘i’ denotes intact rIGFBP-5; ‘c’ denotes the detectable C-terminal c-myc tagged cleavage product.
Briefly, recombinant IGFBP-5 as contained in 5 microL cell culture medium was incubated with culture supernatants (10 microL) from cells transfected with pPA2, pPA2-KO, or empty expression vectors (see U.S. Pat. No. 7,083,940). Phosphate buffered saline was added to a final volume of 50 microL. After incubation at 37 degrees Celsius for 12 hours, 15 microL of the reaction mixture was separated by reducing 16% SDS-PAGE, blotted onto a PVDF membrane, and the C-terminal cleavage product was detected with monoclonal anti-c-myc (clone 9E19, ATTC) using peroxidase-conjugated secondary antibodies (P260, DAKO), and enhanced chemiluminescence (ECL, Amersham).

IGFBP-5 = assay: Activity of PAPP-A2 against IGFBPs, ligand blotting using radiolabeled IGF-II; assay type: biochemical; settings: medium from 293T cells transfected with pPA2
Procedure: (§1) Ligand blotting (Conover et al., 1993, J Clin Invest 91, 1129-37) with radiolabeled IGF-II (Bachem) was used to assay for activity against IGFBP-1 (from HepG2 conditioned medium), rIGFBP-2 (GroPep), rIGFBP-3 (gift of D. Powell), rIGFBP-4 (Austral), rIGFBP-5 (gift of D. Andress), and rIGFBP-6 (Austral). […] IGFBP-3 was partially degraded (FIG. 10). This cleavage was independent of the presence of IGF. Experiments were carried out with media from cells transfected with pPA2 or empty vector.
(§2) Medium from 293T cells transfected with empty vector (−), or cDNA encoding PAPP-A2 (pPA2) (+) was incubated with each of the six IGFBPs (BP1-BP6), and the activity was assessed by ligand blotting using radiolabeled IGF-II.

IGFBP-3 = assay: as above; assay type: biochemical; settings: medium from 293T cells transfected with pPA2
Procedure: as §1, §2

rIGFBP-5 = assay: Proteolytic activity of PAPP-A2 against IGFBP-5, Western blotting using anti-c-myc; assay type: biochemical, human; settings: absence of inhibitors; medium from 293T cells transfected with pPA2

PAPP-A2, sequence (Q9BXP8 234-1791 limits assumed): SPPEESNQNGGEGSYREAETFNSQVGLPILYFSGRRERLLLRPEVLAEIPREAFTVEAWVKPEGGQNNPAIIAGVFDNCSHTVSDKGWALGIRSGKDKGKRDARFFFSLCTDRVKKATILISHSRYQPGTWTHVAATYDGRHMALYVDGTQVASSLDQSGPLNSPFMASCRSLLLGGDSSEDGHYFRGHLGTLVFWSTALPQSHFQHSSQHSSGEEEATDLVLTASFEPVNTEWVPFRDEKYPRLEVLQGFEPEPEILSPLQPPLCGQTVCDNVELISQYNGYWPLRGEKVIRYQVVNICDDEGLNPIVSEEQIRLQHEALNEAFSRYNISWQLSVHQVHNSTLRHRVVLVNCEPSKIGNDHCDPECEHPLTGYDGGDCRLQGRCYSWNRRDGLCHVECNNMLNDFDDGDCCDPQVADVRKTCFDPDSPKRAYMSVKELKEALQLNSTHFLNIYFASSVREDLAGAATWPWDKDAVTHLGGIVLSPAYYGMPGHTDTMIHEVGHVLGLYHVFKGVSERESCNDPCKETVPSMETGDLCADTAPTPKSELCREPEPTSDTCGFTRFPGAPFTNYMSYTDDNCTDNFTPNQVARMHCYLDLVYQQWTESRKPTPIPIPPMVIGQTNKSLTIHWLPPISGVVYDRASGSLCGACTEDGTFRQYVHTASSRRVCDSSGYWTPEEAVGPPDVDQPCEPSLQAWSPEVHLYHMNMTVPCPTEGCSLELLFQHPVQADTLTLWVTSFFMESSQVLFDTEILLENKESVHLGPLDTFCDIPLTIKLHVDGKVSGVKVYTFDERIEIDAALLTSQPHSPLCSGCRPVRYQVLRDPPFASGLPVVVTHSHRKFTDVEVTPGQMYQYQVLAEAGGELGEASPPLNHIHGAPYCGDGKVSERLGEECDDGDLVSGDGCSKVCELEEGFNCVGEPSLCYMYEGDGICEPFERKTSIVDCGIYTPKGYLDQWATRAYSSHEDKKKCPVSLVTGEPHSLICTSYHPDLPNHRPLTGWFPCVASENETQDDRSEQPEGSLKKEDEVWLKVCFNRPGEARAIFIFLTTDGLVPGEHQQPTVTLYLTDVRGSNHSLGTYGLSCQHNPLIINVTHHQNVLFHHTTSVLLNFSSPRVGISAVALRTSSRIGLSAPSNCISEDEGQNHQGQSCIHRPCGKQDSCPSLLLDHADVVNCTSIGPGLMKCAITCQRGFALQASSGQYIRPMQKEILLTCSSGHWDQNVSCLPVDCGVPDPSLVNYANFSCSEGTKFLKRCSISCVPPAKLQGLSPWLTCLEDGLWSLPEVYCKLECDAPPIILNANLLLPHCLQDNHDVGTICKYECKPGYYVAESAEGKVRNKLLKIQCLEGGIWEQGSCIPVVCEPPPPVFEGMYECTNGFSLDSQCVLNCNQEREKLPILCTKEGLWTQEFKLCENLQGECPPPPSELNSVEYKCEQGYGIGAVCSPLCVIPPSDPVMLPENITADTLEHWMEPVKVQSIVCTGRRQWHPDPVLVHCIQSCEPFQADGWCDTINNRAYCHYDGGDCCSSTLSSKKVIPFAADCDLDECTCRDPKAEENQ

| Molecule | PAPP-A2 activity (degradation of rIGFBP-5) (PAPP-A2) | Cleavage of IGFBP-5 (IGFBP-5) | Degradation of IGFBP-3 (IGFBP-3) | Degradation of rIGFBP-5 (rIGFBP-5) |
| --- | --- | --- | --- | --- |
| O=c1oc(Cl)c(Cl)c2ccccc12 [3,4-DCI] | not affected |  |  |  |
| c1cnc2c(c1)ccc1cccnc12 [phenanthroline] | abolished |  |  |  |
| PAPP-A2: recombinant wild-type PAPP-A2 metalloproteinase in medium from 293T cells transfected with cDNA (pPA2) |  | Complete cleavage | Partial degradation | degraded all rIGFBP-5 |
